{"source": "the SangsterLogP compilation", "data": [{"assay": "method code TLC index, from DOI: 10.1016/0223-5234(96)88245-6", "conditions": "pH 7.4", "values": [{"smiles": "COC(=O)C1=C(C)NC(C)=C(C(=O)OC)C1c1ccc(F)cc1", "logD": 0.82}, {"smiles": "CCOC(=O)C1=C(C)NC(C)=C(C(=O)OCC)C1c1cccc([N+](=O)[O-])c1", "logD": 1.6}, {"smiles": "CCOC(=O)C1=C(C)NC(C)=C(C(=O)OCC)C1c1ccc(F)cc1", "logD": 1.66}, {"smiles": "COC(=O)C1=C(C)NC(C)=C(C(=O)OCCOc2ccccc2)C1c1cc(F)cc(F)c1", "note": "(stereo not drawn)", "logD": 3.08}, {"smiles": "CCOC(=O)C1=C(C)NC(C)=C(C(=O)OCC)C1c1cc(F)cc(F)c1", "logD": 2.09}, {"smiles": "COC(=O)C1=C(C)NC(C)=C(C(=O)OC)C1c1cc(F)cc(F)c1", "logD": 1.15}, {"smiles": "COC(=O)C1=C(C)NC(C)=C(C(=O)OC)C1c1ccc(F)c(Br)c1", "logD": 1.48}, {"smiles": "CCOC(=O)C1=C(C)NC(C)=C(C(=O)OC)C1c1cc(F)cc(F)c1", "note": "(stereo not drawn)", "logD": 1.46}]}]}
